test system: HL-60; test: Cytotoxicity against human HL-60 cells assessed as reduction in cell viability incubated for 48 hrs by MTS assay; assay type: functional, cell-based; details: HL-60, 48 h

SMILES | IC50 [µM]
CC(C)=CC[C@@]12OC(C)(C)[C@@H]3C[C@H](C=C4C(=O)c5c(O)cc6c(c5O[C@]431)CCC(C)(C)O6)C2=O | 1.7
CC(C)=CC[C@@]12OC(C)(C)[C@@H]3C[C@H](C=C4C(=O)c5c(O)cc(O)c(CCC(C)(C)O)c5O[C@]431)C2=O | 4.9
CC(C)(O)CCc1c(O)cc(O)c2c(=O)c3ccc(O)c(O)c3oc12 | 3.9

test system: A549; test: Cytotoxicity against human A549 cells assessed as reduction in cell viability incubated for 48 hrs by MTS assay; assay type: functional, cell-based; details: A549, 48 h

SMILES | IC50 [µM]
CC(C)=CC[C@@]12OC(C)(C)[C@@H]3C[C@H](C=C4C(=O)c5c(O)cc6c(c5O[C@]431)CCC(C)(C)O6)C2=O | 2.9
CC(C)=CC[C@@]12OC(C)(C)[C@@H]3C[C@H](C=C4C(=O)c5c(O)cc(O)c(CCC(C)(C)O)c5O[C@]431)C2=O | 2.9
CC(C)(O)CCc1c(O)cc(O)c2c(=O)c3ccc(O)c(O)c3oc12 | 7.2

test system: SMMC-7721; test: Cytotoxicity against human SMMC-7721 cells assessed as reduction in cell viability incubated for 48 hrs by MTS assay; assay type: functional, cell-based; details: SMMC-7721, 48 h

SMILES | IC50 [µM]
CC(C)=CC[C@@]12OC(C)(C)[C@@H]3C[C@H](C=C4C(=O)c5c(O)cc6c(c5O[C@]431)CCC(C)(C)O6)C2=O | 1
CC(C)=CC[C@@]12OC(C)(C)[C@@H]3C[C@H](C=C4C(=O)c5c(O)cc(O)c(CCC(C)(C)O)c5O[C@]431)C2=O | 2.1
CC(C)(O)CCc1c(O)cc(O)c2c(=O)c3ccc(O)c(O)c3oc12 | 2.2

test system: MDA-MB-231; test: Cytotoxicity against human MDA-MB-231 cells assessed as reduction in cell viability incubated for 48 hrs by MTS assay; assay type: functional, cell-based; details: MDA-MB-231, 48 h

SMILES | IC50 [µM]
CC(C)=CC[C@@]12OC(C)(C)[C@@H]3C[C@H](C=C4C(=O)c5c(O)cc6c(c5O[C@]431)CCC(C)(C)O6)C2=O | 2.3
CC(C)=CC[C@@]12OC(C)(C)[C@@H]3C[C@H](C=C4C(=O)c5c(O)cc(O)c(CCC(C)(C)O)c5O[C@]431)C2=O | 6.2
CC(C)(O)CCc1c(O)cc(O)c2c(=O)c3ccc(O)c(O)c3oc12 | 27.3

test system: SW480; test: Cytotoxicity against human SW480 cells assessed as reduction in cell viability incubated for 48 hrs by MTS assay; assay type: functional, cell-based; details: SW480, 48 h

SMILES | IC50 [µM]
CC(C)=CC[C@@]12OC(C)(C)[C@@H]3C[C@H](C=C4C(=O)c5c(O)cc6c(c5O[C@]431)CCC(C)(C)O6)C2=O | 1
CC(C)=CC[C@@]12OC(C)(C)[C@@H]3C[C@H](C=C4C(=O)c5c(O)cc(O)c(CCC(C)(C)O)c5O[C@]431)C2=O | 3.8
CC(C)(O)CCc1c(O)cc(O)c2c(=O)c3ccc(O)c(O)c3oc12 | 6.1

test system: not listed separately; test: Cytotoxicity against human BEAS-2B cells assessed as reduction in cell viability incubated for 48 hrs by MTS assay; assay type: toxicity, cell-based; details: not given

SMILES | IC50 at 48 h [µM]
CC(C)=CC[C@@]12OC(C)(C)[C@@H]3C[C@H](C=C4C(=O)c5c(O)cc6c(c5O[C@]431)CCC(C)(C)O6)C2=O | 1.1
CC(C)=CC[C@@]12OC(C)(C)[C@@H]3C[C@H](C=C4C(=O)c5c(O)cc(O)c(CCC(C)(C)O)c5O[C@]431)C2=O | 7.7
CC(C)(O)CCc1c(O)cc(O)c2c(=O)c3ccc(O)c(O)c3oc12 | 20.4

test system: HL-60; test: Growth inhibition in human HL-60 cells assessed as reduction in cell viability at 40 uM incubated for 48 hrs by MTS assay relative to control; assay type: functional; details: read-out: GI

SMILES | inhibition of growth at 40 µM [%]
CC(C)=CC[C@@]12OC(C)(C)[C@@H]3C[C@H](C=C4C(=O)c5c(O)cc6c(c5O[C@]431)CCC(C)(C)O6)C2=O | > 50
CC(C)=CC[C@@]12OC(C)(C)[C@@H]3C[C@H](C=C4C(=O)c5c(O)cc(O)c(CCC(C)(C)O)c5O[C@]431)C2=O | > 50
CC(C)(O)CCc1c(O)cc(O)c2c(=O)c3ccc(O)c(O)c3oc12 | > 50

test system: A549; test: Growth inhibition in human A549 cells assessed as reduction in cell viability at 40 uM incubated for 48 hrs by MTS assay relative to control; assay type: functional; details: read-out: GI

SMILES | inhibition of growth at 40 µM [%]
CC(C)=CC[C@@]12OC(C)(C)[C@@H]3C[C@H](C=C4C(=O)c5c(O)cc6c(c5O[C@]431)CCC(C)(C)O6)C2=O | > 50
CC(C)=CC[C@@]12OC(C)(C)[C@@H]3C[C@H](C=C4C(=O)c5c(O)cc(O)c(CCC(C)(C)O)c5O[C@]431)C2=O | > 50
CC(C)(O)CCc1c(O)cc(O)c2c(=O)c3ccc(O)c(O)c3oc12 | > 50

test system: SMMC-7721; test: Growth inhibition in human SMMC-7721 cells assessed as reduction in cell viability at 40 uM incubated for 48 hrs by MTS assay relative to control; assay type: functional; details: read-out: GI

SMILES | inhibition of growth at 40 µM [%]
CC(C)=CC[C@@]12OC(C)(C)[C@@H]3C[C@H](C=C4C(=O)c5c(O)cc6c(c5O[C@]431)CCC(C)(C)O6)C2=O | > 50
CC(C)=CC[C@@]12OC(C)(C)[C@@H]3C[C@H](C=C4C(=O)c5c(O)cc(O)c(CCC(C)(C)O)c5O[C@]431)C2=O | > 50
CC(C)(O)CCc1c(O)cc(O)c2c(=O)c3ccc(O)c(O)c3oc12 | > 50

test system: MDA-MB-231; test: Growth inhibition in human MDA-MB-231 cells assessed as reduction in cell viability at 40 uM incubated for 48 hrs by MTS assay relative to control; assay type: functional; details: read-out: GI

SMILES | inhibition of growth at 40 µM [%]
CC(C)=CC[C@@]12OC(C)(C)[C@@H]3C[C@H](C=C4C(=O)c5c(O)cc6c(c5O[C@]431)CCC(C)(C)O6)C2=O | > 50
CC(C)=CC[C@@]12OC(C)(C)[C@@H]3C[C@H](C=C4C(=O)c5c(O)cc(O)c(CCC(C)(C)O)c5O[C@]431)C2=O | > 50
CC(C)(O)CCc1c(O)cc(O)c2c(=O)c3ccc(O)c(O)c3oc12 | > 50

test system: SW480; test: Growth inhibition in human SW480 cells assessed as reduction in cell viability at 40 uM incubated for 48 hrs by MTS assay relative to control; assay type: functional; details: read-out: GI

SMILES | inhibition of growth at 40 µM [%]
CC(C)=CC[C@@]12OC(C)(C)[C@@H]3C[C@H](C=C4C(=O)c5c(O)cc6c(c5O[C@]431)CCC(C)(C)O6)C2=O | > 50
CC(C)=CC[C@@]12OC(C)(C)[C@@H]3C[C@H](C=C4C(=O)c5c(O)cc(O)c(CCC(C)(C)O)c5O[C@]431)C2=O | > 50
CC(C)(O)CCc1c(O)cc(O)c2c(=O)c3ccc(O)c(O)c3oc12 | > 50
